ChEMBL document CHEMBL1147331, “Cytotoxic and antimalarial bisbenzylisoquinoline alkaloids from Stephania erecta” (J Nat Prod, 1993)
Values after ≈ are worked out from the molar mass of the structure shown.

Assays:
Plasmodium falciparum [1] = test: Antimalarial activity after 24 hrs against chloroquine-sensitive Plasmodium falciparum D6 infected type A+ human erythrocytes by [3H]hypoxanthine uptake; type: functional; conditions: read-out: ED50 (the source's name)
Plasmodium falciparum [2] = test: Antimalarial activity after 24 hrs against chloroquine-resistant Plasmodium falciparum W2 infected type A+ human erythrocytes by [3H]hypoxanthine uptake; type: functional; conditions: read-out: ED50 (the source's name)
[3] = Cytotoxicity against human BCA1 cells after 3 days by sulforhodamine B assay; type: cell-based; conditions: read-out: ED50
[4] = Cytotoxicity against human HT1080 cells after 3 days by sulforhodamine B assay; type: cell-based, HT-1080; conditions: read-out: ED50
[5] = Cytotoxicity against human LUC1 cells after 3 days by sulforhodamine B assay; type: cell-based; conditions: read-out: ED50
[6] = Cytotoxicity against human SK-MEL-2 cells after 3 days by sulforhodamine B assay; type: cell-based; conditions: read-out: ED50
[7] = Cytotoxicity against human Col1 cells after 3 days by sulforhodamine B assay; type: cell-based; conditions: read-out: ED50
[8] = Cytotoxicity against human KB cells after 3 days by sulforhodamine B assay; type: cell-based; conditions: read-out: ED50
[9] = Cytotoxicity against human KBV1 cells after 3 days by sulforhodamine B assay; type: cell-based, KB-V1; conditions: read-out: ED50
[10] = Cytotoxicity against mouse P388 cells after 2 days by sulforhodamine B assay; type: cell-based; conditions: read-out: ED50
[11] = Cytotoxicity against human A431 cells after 3 days by sulforhodamine B assay; type: cell-based, A-431; conditions: read-out: ED50
[12] = Cytotoxicity against human LNCAP cells after 3 days by sulforhodamine B assay; type: cell-based; conditions: read-out: ED50
[13] = Cytotoxicity against human ZR-75-1 cells after 3 days by sulforhodamine B assay; type: cell-based; conditions: read-out: ED50
[14] = Selectivity index, ratio of ED50 for human BCA1 cells to ED50 for chloroquine-sensitive Plasmodium falciparum D6; type: toxicity, cell-based; conditions: read-out: Ratio ED50
[15] = Selectivity index, ratio of ED50 for human BCA1 cells to ED50 for chloroquine-resistant Plasmodium falciparum W2; type: toxicity, cell-based; conditions: read-out: Ratio ED50
[16] = Selectivity index, ratio of ED50 for human HT1080 cells to ED50 for chloroquine-sensitive Plasmodium falciparum D6; type: toxicity, cell-based, HT-1080; conditions: read-out: Ratio ED50
[17] = Selectivity index, ratio of ED50 for human HT1080 cells to ED50 for chloroquine-resistant Plasmodium falciparum W2; type: toxicity, cell-based, HT-1080; conditions: read-out: Ratio ED50
[18] = Selectivity index, ratio of ED50 for human LUC1 cells to ED50 for chloroquine-sensitive Plasmodium falciparum D6; type: toxicity, cell-based; conditions: read-out: Ratio ED50
[19] = Selectivity index, ratio of ED50 for human LUC1 cells to ED50 for chloroquine-resistant Plasmodium falciparum W2; type: toxicity, cell-based; conditions: read-out: Ratio ED50
[20] = Selectivity index, ratio of ED50 for human MEL2 cells to ED50 for chloroquine-sensitive Plasmodium falciparum D6; type: toxicity, cell-based; conditions: read-out: Ratio ED50
[21] = Selectivity index, ratio of ED50 for human MEL2 cells to ED50 for chloroquine-resistant Plasmodium falciparum W2; type: toxicity, cell-based; conditions: read-out: Ratio ED50
[22] = Selectivity index, ratio of ED50 for human COL1 cells to ED50 for chloroquine-sensitive Plasmodium falciparum D6; type: toxicity, cell-based; conditions: read-out: Ratio ED50
[23] = Selectivity index, ratio of ED50 for human COL1 cells to ED50 for chloroquine-resistant Plasmodium falciparum W2; type: toxicity, cell-based; conditions: read-out: Ratio ED50
[24] = Selectivity index, ratio of ED50 for human KB cells to ED50 for chloroquine-sensitive Plasmodium falciparum D6; type: toxicity, cell-based; conditions: read-out: Ratio ED50
[25] = Selectivity index, ratio of ED50 for human KB cells to ED50 for chloroquine-resistant Plasmodium falciparum W2; type: toxicity, cell-based; conditions: read-out: Ratio ED50
[26] = Selectivity index, ratio of ED50 for human KB-V1 cells to ED50 for chloroquine-sensitive Plasmodium falciparum D6; type: toxicity, cell-based; conditions: read-out: Ratio ED50
[27] = Selectivity index, ratio of ED50 for human KB-V1 cells to ED50 for chloroquine-resistant Plasmodium falciparum W2; type: toxicity, cell-based; conditions: read-out: Ratio ED50
[28] = Selectivity index, ratio of ED50 for human LNCaP cells to ED50 for chloroquine-sensitive Plasmodium falciparum D6; type: toxicity, cell-based; conditions: read-out: Ratio ED50
[29] = Selectivity index, ratio of ED50 for human LNCaP cells to ED50 for chloroquine-resistant Plasmodium falciparum W2; type: toxicity, cell-based; conditions: read-out: Ratio ED50
[30] = Selectivity index, ratio of ED50 for human ZR-75-1 cells to ED50 for chloroquine-sensitive Plasmodium falciparum D6; type: toxicity, cell-based; conditions: read-out: Ratio ED50
[31] = Selectivity index, ratio of ED50 for human ZR-75-1 cells to ED50 for chloroquine-resistant Plasmodium falciparum W2; type: toxicity, cell-based; conditions: read-out: Ratio ED50
[32] = Ratio of ED50 for human KB cells to ED50 for human KBV1 cells; type: ADME, cell-based; conditions: KB cells and KBV1 cells, read-out: Ratio ED50
in vitro [33] = conditions: mouse, P388 cells
Description: Selectivity index, ratio of ED50 for mice (Mus musculus) P388 cells to ED50 for chloroquine-sensitive Plasmodium falciparum D6

in vitro [34] = conditions: mouse, P388 cells; remark: listed apart in the source
Description: Selectivity index, ratio of ED50 for mice (Mus musculus) P388 cells to ED50 for chloroquine-resistant Plasmodium falciparum W2

in vitro [35] = conditions: human, A431 cells
Description: Selectivity index, ratio of ED50 for human A431 cells to ED50 for chloroquine-sensitive Plasmodium falciparum D6

in vitro [36] = conditions: human, A431 cells; remark: listed apart in the source
Description: Selectivity index, ratio of ED50 for human A431 cells to ED50 for chloroquine-resistant Plasmodium falciparum W2

Work on COc1ccc2cc1Oc1ccc(cc1)C[C@H]1c3c(cc(OC)c4c3Oc3cc5c(cc3O4)CCN(C)[C@@H]5C2)CCN1C yielded an EC50 (Plasmodium falciparum [1]) of 0.0974 µg/mL (≈ 0.169 µM), an EC50 (Plasmodium falciparum [2]) of 0.256 µg/mL (≈ 0.443 µM) and a CC50 at 72 h [3] of 2.3 µg/mL (≈ 3.99 µM). It also gave a CC50 at 72 h [4] of 2.2 µg/mL (≈ 3.81 µM), a CC50 at 72 h [5] of 7.7 µg/mL (≈ 13.4 µM) and a CC50 at 72 h [6] of 8.7 µg/mL (≈ 15.1 µM). For the same compound, the CC50 at 72 h [7] was 3.6 µg/mL (≈ 6.24 µM), the CC50 at 72 h [8] was 4.8 µg/mL (≈ 8.32 µM) and the CC50 at 72 h [9] was 0.4 µg/mL (≈ 0.694 µM). For the same compound, the CC50 at 48 h [10] was 5.6 µg/mL (≈ 9.71 µM), the CC50 at 72 h [11] was 2.6 µg/mL (≈ 4.51 µM) and the CC50 at 72 h [12] was 2.1 µg/mL (≈ 3.64 µM). It also gave a CC50 at 72 h [13] of 1.2 µg/mL (≈ 2.08 µM), a selectivity ratio [14] of 24 and a selectivity ratio [15] of 9. It also gave a selectivity ratio [16] of 23, a selectivity ratio [17] of 9 and a selectivity ratio [18] of 79. It also gave a selectivity ratio [19] of 30, a selectivity ratio [20] of 89 and a selectivity ratio [21] of 34. For the same compound, the selectivity ratio [22] was 37, the selectivity ratio [23] was 14 and the selectivity ratio [24] was 49. It also gave a selectivity ratio [25] of 19, a selectivity ratio [26] of 4 and a selectivity ratio [27] of 2. The selectivity ratio [28] was 22, the selectivity ratio [29] was 8 and the selectivity ratio [30] was 12. It also gave a selectivity ratio [31] of 5, a selectivity ratio [32] of 10 and a selectivity ratio (in vitro [33]) of 57. It also gave a selectivity ratio (in vitro [34]) of 22, a selectivity ratio (in vitro [35]) of 27 and a selectivity ratio (in vitro [36]) of 10.
